Tested on: A375 human melanoma xenografts
Experiment: Example 7 efficacy study in A375 human melanoma xenografts (tumor volume, T/C, TGI)
Assay type: in vivo, BALB/c nude mice
Details: 10 mg/kg, p.o.; for T/C / TGI / Tumor Size on PG-D14 (mean ± SEM): PG-D14
Description: For efficacy study, agents were tested in the A375 human melanoma xenografts. Compound 118, Compound 156, and Compound 180 were administered to BALB/c nude mice bearing A375 xenografts from day 0 and dosed p.o. twice per day (BID). Compound 141 was administered from day 0 and dosed p.o. twice per day (BID) or dosed p.o. daily (QD) from day 1. Compound 141, Compound 118, Compound 156, and Compound 180 were dosed at 10 mg/kg for 14 days. The known BRAF inhibitor Dabrafenib was used as a positive control. Dabrafenib was administered from day 1 and dosed p.o. daily (QD) for 14 days and dosed at 100 mg/kg.
The A375 tumor cells were maintained in vitro in DMEM medium supplemented with […] and 1% Penicillin-Streptomycin at 37° C. in an atmosphere of 5% CO2 in air. The tumor cells were routinely subcultured twice weekly. The cells growing in an exponential growth phase were harvested and counted for tumor inoculation.
Each mouse was inoculated subcutaneously at the right flank with A375 tumor cells (5×10^6) in 0.2 mL of PBS with Matrigel (PBS: Matrigel=1:1) supplemented for tumor development. Animals were grouped when the average tumor volume reached 246 mm^3 for efficacy study and 390 mm^3 for PKPD study on day 17 after tumor inoculation. The test articles administration and the animal numbers in each group are shown in the above experimental tables.
Prior to the onset of drug treatment, mice were measured for tumor size in two dimensions using a caliper, and the tumor volume (mm^3) was calculated using formula V=0.5 a×b^2 where a and b are the long and short diameters of the tumor in mm, respectively. Mice were randomized into different treatment groups based on the tumor volume.
The major endpoint was to see if the tumor growth could be delayed or mice could be cured. The tumor size was then used for calculations of T/C value. The T/C value (in percent) is an indication of antitumor effectiveness; T and C are the mean volumes of the treated and control groups, respectively on specified day.
TGI was calculated for each group using the formula: TGI (%)=[1−(Ti−T0)/(Ci−C0)]×100; Ti is the average tumor volume of a treatment group on a given day, T0 is the average tumor volume of the treatment group on the day of treatment start, Ci is the average tumor volume of the vehicle control group on the same day with Ti, and C0 is the average tumor volume of the vehicle group on the day of treatment start.

Compound	T/C (BID × 14 days) [%]	TGI (BID × 14 days) [%]	Tumor Size on PG-D14 (mean ± SEM) (BID × 14 days) [mm^3]	Tumor Volume (mean ± SEM) (BID × 14 days, day 0) [mm^3]	Tumor Volume (mean ± SEM) (BID × 14 days, day 3) [mm^3]	Tumor Volume (mean ± SEM) (BID × 14 days, day 7) [mm^3]	Tumor Volume (mean ± SEM) (BID × 14 days, day 10) [mm^3]	Tumor Volume (mean ± SEM) (BID × 14 days, day 14) [mm^3]	T/C (QD × 14 days) [%]	TGI (QD × 14 days) [%]	Tumor Size on PG-D14 (mean ± SEM) (QD × 14 days) [mm^3]	Tumor Volume (mean ± SEM) (QD × 14 days, day 0) [mm^3]	Tumor Volume (mean ± SEM) (QD × 14 days, day 3) [mm^3]	Tumor Volume (mean ± SEM) (QD × 14 days, day 7) [mm^3]	Tumor Volume (mean ± SEM) (QD × 14 days, day 10) [mm^3]	Tumor Volume (mean ± SEM) (QD × 14 days, day 14) [mm^3]
CCN(C)S(=O)(=O)Nc1ccc(F)c(Oc2ccc3ncc(OCC4CCN(C5CCC(c6cc7c(cc6F)c(N6CCC(=O)NC6=O)nn7C)CC5)CC4)nc3c2)c1C#N (single isomer, unassigned) [Compound 118, 7-[2-cyano-3-[[ethyl(methyl)sulfamoyl]amino]-6-fluoro-phenoxy]-2-[[1-[4-[3-(2,4-dioxohexahydropyrimidin-1-yl)-5-fluoro-1-methyl-indazol-6-yl]cyclohexyl]-4-piperidyl]methoxy]quinoxaline]	6.1	115.3	81 ± 8	247 ± 14	326 ± 20	192 ± 20	117 ± 13	81 ± 8	–	–	–	–	–	–	–	–
CCN(C)S(=O)(=O)Nc1ccc(F)c(Oc2ccc3ncn(C4CC5(CCN(C6CCN(c7cc8c(cc7F)c(N7CCC(=O)NC7=O)nn8C)CC6)CC5)C4)c(=O)c3c2)c1C#N [Compound 156, 6-[2-cyano-3-[[ethyl(methyl)sulfamoyl]amino]-6-fluoro-phenoxy]-3-[7-[1-[3-(2,4-dioxohexahydropyrimidin-1-yl)-5-fluoro-1-methyl-indazol-6-yl]-4-piperidyl]-7-azaspiro[3.5]nonan-2-yl]-4-oxo-quinazoline]	2.6	119.6	34 ± 5	246 ± 13	203 ± 16	111 ± 4	68 ± 3	34 ± 5	–	–	–	–	–	–	–	–
CCN(C)S(=O)(=O)Nc1ccc(F)c(Oc2ccc3ncn(C4CC5(CCN(C6CC7(C6)CN(c6cc8c(cc6F)c(N6CCC(=O)NC6=O)nn8C)C7)CC5)C4)c(=O)c3c2)c1C#N (centres unmarked) [Compound 141, 6-[2-cyano-3-[[ethyl(methyl)sulfamoyl]amino]-6-fluoro-phenoxy]-3-[7-[2-[3-(2,4-dioxohexahydropyrimidin-1-yl)-5-fluoro-1-methyl-indazol-6-yl]-2-azaspiro[3.3]heptan-6-yl]-7-azaspiro[3.5]nonan-2-yl]-4-oxo-quinazoline]	2.4	119.8	32 ± 4	246 ± 15	181 ± 15	109 ± 13	59 ± 6	32 ± 4	3.0	119.0	40 ± 6	246 ± 12	275 ± 9	138 ± 13	81 ± 9	40 ± 6

From patent US20260297060A1, “COMPOUNDS FOR THE DEGRADATION OF MUTANT BRAF” (C4 THERAPEUTICS, INC., priority 2023, published 2026)
